The test system of one series is SW-620. The series is described as follows: Cytotoxicity against human SW620 cells assessed as cell growth inhibition at 25 uM relative to control. Format: functional.
Series [1] in a line: Protein binding in mouse plasma assessed as unbound fraction. Format: ADME, cell-free.
For another series, the target named is CYP3A4 (Homo sapiens, UniProt P08684). As to the kind of experiment: Inhibition of CYP3A4 (unknown origin) at 10 uM relative to control. Format: ADME.
CYP3A4, sequence (P08684 whole entry): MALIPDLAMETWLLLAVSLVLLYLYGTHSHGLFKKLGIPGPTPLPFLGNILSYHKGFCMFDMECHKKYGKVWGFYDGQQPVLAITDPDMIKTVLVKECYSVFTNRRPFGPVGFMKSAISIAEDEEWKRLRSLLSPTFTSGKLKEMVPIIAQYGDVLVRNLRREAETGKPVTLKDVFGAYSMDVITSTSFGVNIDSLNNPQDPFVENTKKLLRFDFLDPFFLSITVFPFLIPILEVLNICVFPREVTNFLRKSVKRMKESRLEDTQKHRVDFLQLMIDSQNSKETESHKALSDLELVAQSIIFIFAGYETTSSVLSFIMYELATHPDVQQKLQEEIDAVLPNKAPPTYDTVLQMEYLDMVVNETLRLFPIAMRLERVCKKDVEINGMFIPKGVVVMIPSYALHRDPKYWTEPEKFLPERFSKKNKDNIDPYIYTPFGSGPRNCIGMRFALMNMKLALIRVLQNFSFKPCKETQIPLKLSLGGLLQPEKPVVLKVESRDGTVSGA
The next series deals with CYP2D6 (Homo sapiens, UniProt P10635). The series is described as follows: Inhibition of CYP2D6 (unknown origin) at 10 uM relative to control. Format: ADME.
CYP2D6, sequence (P10635 whole entry): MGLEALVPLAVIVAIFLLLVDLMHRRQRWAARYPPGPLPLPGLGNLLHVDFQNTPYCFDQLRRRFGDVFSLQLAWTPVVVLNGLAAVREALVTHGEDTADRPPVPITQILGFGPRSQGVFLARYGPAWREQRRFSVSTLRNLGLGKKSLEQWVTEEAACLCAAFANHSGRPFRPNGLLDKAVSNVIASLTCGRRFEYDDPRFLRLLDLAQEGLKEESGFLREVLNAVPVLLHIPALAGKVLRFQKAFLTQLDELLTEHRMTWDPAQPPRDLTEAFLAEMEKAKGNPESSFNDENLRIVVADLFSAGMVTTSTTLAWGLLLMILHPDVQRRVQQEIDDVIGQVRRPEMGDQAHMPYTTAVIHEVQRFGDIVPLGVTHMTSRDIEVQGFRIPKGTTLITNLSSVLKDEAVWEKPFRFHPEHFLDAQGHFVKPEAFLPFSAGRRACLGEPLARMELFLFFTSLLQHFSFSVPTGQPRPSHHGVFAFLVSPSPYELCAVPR
The next series addresses CYP2C19 (Homo sapiens, UniProt P33261). The series is described as follows: Inhibition of CYP2C19 (unknown origin) at 10 uM relative to control. Type of series: ADME.
Series [2] can be described thus: Half life in CD1 mouse at 5 mg/kg, ip. Format: ADME, organism-based. Particulars: in vivo.
Series [3] in a line: Mean residence time in CD1 mouse at 5 mg/kg, ip. Type of series: ADME, organism-based. The settings on record: in vivo.
Series [4] can be described thus: Tmax in CD1 mouse at 5 mg/kg, ip. Type of series: ADME, organism-based. Particulars: in vivo.
Series [5] is described as follows: Cmax in CD1 mouse at 5 mg/kg, ip. Type of series: ADME, organism-based. Further details: dose 5 mg/kg, route ip. The settings on record: in vivo.
Series [6] is described as follows: AUCinfinity in CD1 mouse at 5 mg/kg, ip. Type of series: ADME, organism-based. Further details: dose 5 mg/kg, route ip. Particulars: in vivo.
Series [7] is described as follows: Protein binding in human plasma assessed as unbound fraction. Format: ADME, cell-free.

SMILES strings stand for the structures.

The term inhibition denotes the change of the read-out against control, counted positive when it falls. The half-life is how long it takes for the measured level to halve. A word on the MRT: it is the average time that molecules of a dose stay in the body. As usually defined, the Tmax is the time at which the peak concentration occurs. For orientation: Cmax means the maximum level reached in the sampled fluid or tissue. By AUC(0-inf) is commonly meant the area under the concentration-time curve extrapolated to infinity. Low values mean low exposure, high ones high exposure.

CYP2C19, sequence (P33261 whole entry): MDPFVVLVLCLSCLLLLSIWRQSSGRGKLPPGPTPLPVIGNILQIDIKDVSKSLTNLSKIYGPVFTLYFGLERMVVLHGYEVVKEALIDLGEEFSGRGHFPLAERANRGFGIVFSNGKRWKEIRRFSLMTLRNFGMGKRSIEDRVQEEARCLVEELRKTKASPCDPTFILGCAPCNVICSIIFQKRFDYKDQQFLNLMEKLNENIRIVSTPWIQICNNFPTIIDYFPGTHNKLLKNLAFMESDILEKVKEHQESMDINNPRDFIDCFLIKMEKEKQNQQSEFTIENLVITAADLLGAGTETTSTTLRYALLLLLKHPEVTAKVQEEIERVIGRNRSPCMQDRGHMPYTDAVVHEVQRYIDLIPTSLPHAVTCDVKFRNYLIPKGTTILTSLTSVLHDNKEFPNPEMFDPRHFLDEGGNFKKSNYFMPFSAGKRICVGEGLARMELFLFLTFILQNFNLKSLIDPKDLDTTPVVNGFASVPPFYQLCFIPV

Turning to `O=C(Nc1ccc(N2CCN(C(=O)c3ccc4ccccc4c3)CC2)cc1)c1cc2ccccc2o1`, the inhibition at 25 µM with SW-620 stood at 27.8%.

On to `O=C(NC(=S)Nc1ccc(-c2nc3ccccc3o2)cc1)c1ccc2cccnc2c1`, for which the inhibition at 25 µM in the series with SW-620 worked out at 0%.

As for `COc1ccccc1C(=O)NC(=S)Nc1ccc(-c2nc3ccccc3[nH]2)cc1`, the inhibition at 25 µM in the series with SW-620 was determined as 16.9%.

As to `COc1ccccc1C(=O)NC(=S)Nc1ccc(-c2nc3ccccc3o2)cc1`, the inhibition at 25 µM in the series with SW-620 was 17.2%.

With `O=C1c2ccccc2CCN1C(=S)Nc1ccc(-c2ncco2)cc1`, in the series on SW-620, the inhibition at 25 µM turned out to be 0.9%.

Take `COc1cc2ccccc2cc1C(=O)NC(=S)Nc1ccc(-c2nc3ccccc3o2)cn1`: the inhibition at 25 µM with SW-620 was determined as 0%.

Turning to `CC(C)Oc1cc2ccccc2cc1C(=O)NC(=S)Nc1ccc(-c2nc3ccccc3o2)cc1`, the inhibition at 25 µM in the series with SW-620 was 17.2%.

`COc1cc2ccccc2cc1C(=O)NC(=S)Nc1ccc(-c2nccs2)cc1`: the inhibition at 25 µM with SW-620 was determined as 34.8%. For the same compound, the Fu in series [1] is listed as 2.2%.

On to `COc1cc2ccccc2cc1C(=O)NC(=S)Nc1ccc(-c2ncc[nH]2)cc1`, for which, in the series on SW-620, the inhibition at 25 µM was determined as 89.9%. The inhibition at 10 µM was determined as 28% on CYP3A4, 36% at CYP2D6 and 43% against CYP2C19. Moreover, the half-life in series [2] is 2.49 h. Also, the MRT in [3] turned out to be 2.7 h. Besides, the Tmax in series [4] is 1 h. Besides, the Cmax in [5] worked out at 5.06 µg/mL. Further, the AUC(0-inf) in series [6] worked out at 15.9 µg·h/mL.

Consider `COc1cc2ccccc2cc1C(=O)NC(=S)Nc1ccc(-c2nnco2)cc1`, for which the inhibition at 25 µM in the series with SW-620 is 86.5%. The inhibition at 10 µM at CYP3A4 is 16%; against CYP2D6, 19%; against CYP2C19 it was 37%. The compound further showed a half-life in [2] of 3.51 h. Moreover, the MRT in series [3] was 5.3 h. For the same compound, the Tmax in [4] worked out at 2.33 h. The compound further displayed a Cmax in series [5] of 5.1 µg/mL. Moreover, the AUC(0-inf) in [6] is 34.1 µg·h/mL.

Take `O=C1c2ccccc2CCN1C(=S)Nc1ccc(-c2nc3ccccc3o2)cc1`: the inhibition at 25 µM with SW-620 came out at 0%. Besides, in [7], the Fu is reported as below 0.03%.

Consider `COc1cc2ccccc2cc1C(=O)NC(=O)Nc1ccc(-c2cscn2)cc1`, for which the inhibition at 25 µM with SW-620 came out at 42.6%. The Fu in [7] and in series [1] was below 0.3% each time.

With `COc1cc2ccccc2cc1C(=O)NC(=S)Nc1ccc(-c2ncon2)cc1`, the inhibition at 25 µM in the series on SW-620 turned out to be 18.4%. Also, the Fu in series [1] is recorded as below 0.03%.

`CCOc1cc2ccccc2cc1C(=O)NC(=S)Nc1ccc(-c2nc3ccccc3s2)cc1`: the inhibition at 25 µM in the series on SW-620 came to 13%.

Turning to `COc1ccccc1NC(=S)Nc1ccc(-c2nc3ccccc3[nH]2)cc1`, the inhibition at 25 µM in the series on SW-620 is 13.2%.

Regarding `O=C(NC(=S)Nc1ccc(-c2nc3ccccc3[nH]2)cc1)c1ccc2cccnc2c1`, the inhibition at 25 µM with SW-620 was found to be 0%.

For the compound `COc1ccccc1NC(=S)Nc1ccc(-c2nc3ccccc3o2)cc1`, the inhibition at 25 µM in the series with SW-620 worked out at 29.2%.

On to `COc1cc2ccccc2cc1C(=O)NC(=S)Nc1ccc(-c2nc3ccccc3s2)cn1`, for which the inhibition at 25 µM in the series with SW-620 turned out to be 71.9%.

Take `COc1cc2ccccc2cc1C(=O)NC(=O)Nc1ccc(-c2nc3ccccc3s2)cc1`: in the series on SW-620, the inhibition at 25 µM was found to be 0%.

For the compound `COc1cc2c(OC)cccc2cc1C(=O)NC(=S)Nc1ccc(-c2nc3ccccc3[nH]2)cc1`, the inhibition at 25 µM in the series on SW-620 is 37.6%.

For the compound `O=C(NC(=S)Nc1ccc(-c2nc3ccccc3o2)cc1)c1ccc2ccccc2c1`, in the series on SW-620, the inhibition at 25 µM is 76.4%. Also, the figures for the Fu in [7] and in [1] were below 0.04% and below 0.03%, respectively.

Take `CCOc1cc2ccccc2cc1C(=O)NC(=S)Nc1ccc(-c2nnco2)cc1`: in the series with SW-620, the inhibition at 25 µM was 0%.

With `COc1ccccc1NC(=O)Nc1ccc(-c2nc3ccccc3[nH]2)cc1`, the inhibition at 25 µM in the series on SW-620 was found to be 23.8%.

For the compound `COc1ccccc1NC(=O)Nc1ccc(-c2nc3ccccc3o2)cc1`, the inhibition at 25 µM in the series on SW-620 came to 19.9%.

As to `COc1cc2ccccc2cc1C(=O)NC(=S)Nc1ccc(-c2nc3ccccc3s2)cc1`, in the series with SW-620, the inhibition at 25 µM turned out to be 7.1%.

In the case of `O=C(NC(=S)Nc1ccc(-c2ncco2)cc1)c1ccc2cccnc2c1`, in the series with SW-620, the inhibition at 25 µM was 1.4%.

On to `COc1cc2ccccc2cc1C(=O)NC(=S)Nc1ccc(-c2ncco2)cc1`, for which the inhibition at 25 µM with SW-620 is 33.1%.

On to `CCOc1cc2ccccc2cc1C(=O)NC(=S)Nc1ccc(-c2nc3ccccc3o2)cc1`, for which, in the series with SW-620, the inhibition at 25 µM came out at 0%.

As for `COc1cc2c(OC)cccc2cc1C(=O)NC(=S)Nc1ccc(-c2nc3ccccc3s2)cc1`, the inhibition at 25 µM with SW-620 turned out to be 15.8%.

Turning to `COc1cc2ccccc2cc1C(=O)NC(=O)Nc1ccc(-c2nc3ccccc3[nH]2)cc1`, in the series with SW-620, the inhibition at 25 µM was determined as 90.8%. The Fu in series [7] and in [1] was below 0.3% throughout.

Take `COc1cc2ccccc2cc1C(=O)NC(=S)Nc1ccc(-c2nc3ccccc3o2)cc1`: in the series with SW-620, the inhibition at 25 µM worked out at 57.6%. Further, the Fu in series [1] is recorded as below 0.03%.

In the case of `COc1cc2ccccc2cc1C(=O)Nc1ccc(-c2nc3ccccc3s2)cc1`, in the series with SW-620, the inhibition at 25 µM was determined as 42.3%.

With `O=C(NC(=O)c1ccc2ccccc2c1)Nc1ccc(-c2nc3ccccc3[nH]2)cc1`, the inhibition at 25 µM with SW-620 amounted to 12.7%.

With `O=C(Nc1ccc(N2CCN(C(=O)c3ccccn3)CC2)cc1)c1cc2ccccc2o1`, the inhibition at 25 µM in the series on SW-620 stood at 44.8%.

`COc1cc2ccccc2cc1C(=O)NC(=S)Nc1ccc(-c2nc3ccccc3[nH]2)cc1`: in the series with SW-620, the inhibition at 25 µM was 68.4%. The Fu in series [7] is below 0.03%; in [1], below 0.01%.

In the case of `COc1cc2ccccc2cc1C(=O)NC(=O)Nc1ccc(-c2nc3ccccc3o2)cc1`, in the series with SW-620, the inhibition at 25 µM stood at 0%.

Regarding `COc1cc2ccccc2cc1C(=O)NC(=S)Nc1ccc(-c2cscn2)cc1`, the inhibition at 25 µM with SW-620 was 29%.

Take `COc1cc2ccccc2cc1C(=O)Nc1ncc(C(F)(F)F)s1`: the inhibition at 25 µM in the series with SW-620 is 17.6%.
